Reference: patent US20070060636A1, “High enantiomeric purity dexanabinol for pharmaceutical compositions” (priority 2002, published 2007)
Like-named read-outs stand apart in the source and are kept apart here.

Experiments:
[1] = single dose toxicity and pharmacokinetics, rat; type: in vivo, Sprague Dawley rats; conditions: for AUC(0-inf) / Cmax: Sprague Dawley, plasma, single i.v. 50 mg/kg (NOAEL); for AUC∞ Ratio to Phase I / Cmax Ratio to Phase I / Cmax Ratio to Phase II: single i.v. 50 mg/kg; for AUC∞ Ratio to Phase I / Cmax Ratio to Phase I: vs human 150 mg Phase I; for Cmax Ratio to Phase II: vs human 150 mg Phase II
Description: The pharmacokinetics of dexanabinol of high enantiomeric purity formulated in CREMOPHOR EL®:ethanol as described in Example 4 were investigated in rats, rabbits, and monkeys following intravenous administration of single doses, and 14 and 28 days of repeated dosing. Human pharmacokinetics was studied during Phase I and Phase II clinical studies. Dexanabinol used in the pharmacokinetic studies was formulated as drug concentrates of 50 and 100 mg/ml and diluted with sterile 0.9% NaCl solution prior to intravenous (i.v.) administration to the desired final doses. Determination of dexanabinol concentrations in plasma and brain extracts was carried out using a validated Gas Chromatography-Mass Spectra (GC-MS) assay following solid phase extraction of the drug and derivatization. The limit of quantitation of the assay is 0.1 ng/ml.
(§1) Pharmacokinetic parameters were estimated by a non-compartmental method using WinNonlin Professional version 3.2 (Pharsight Corp., Mountain View, Calif.). The maximum plasma concentration (Cmax), when the drug is administered by infusion, is the concentration at the end of infusion. The Cmax following intravenous bolus administration is the value estimated by the software to be the concentration at t=0. The terminal slope (X) was estimated by linear regression through the last time points and used to calculate the terminal half-life (t1/2) from the following equation: t1/2=0.693/λ The area under the curve from time of dosing through the last time point (AUCz) was calculated by the linear trapezoid method. The AUC extrapolated to infinity (AUC∞) was calculated from the following equation: AUC∞=AUCz+Cz/λ where Cz is the concentration at the last time point predicted by the linear regression. AUC∞ was normalized for dose (mg/kg) and presented as AUC∞/Dose. Mean residence time (MRT), when the drug is administered by infusion is described by the following equation: MRT=(AUMC/AUC)−(TI)/2 Mean residence time after i.v. bolus administration is described by the following equation: MRT=(AUMC/AUC) where AUMC is the area under the first moment curve and TI is the length of infusion. Plasma clearance (CL), and the apparent volume of distribution at steady state (Vss) were calculated from the following equations: CL=Dose/AUC∞ Vss=MRT×CL
Table 6 summarizes the maximum plasma concentration (Cmax) and the area under the plasma concentration versus time curve (AUC) observed at the NOAEL doses cited above, as well as the animal to human exposure ratios (ER) for dexanabinol of high enantiomeric purity, expressed as the ratio of the pharmacokinetic (PK) parameter to that observed for a 150 mg dose in a Phase I study in human volunteers and in Phase II study in patients suffering from severe traumatic brain injury (TBI).

[2] = 1st Phase I study, rising single i.v. dose, healthy male volunteers; type: in vivo, human; conditions: for AUC∞/Dose: normalized for dose (mg/kg); for half-life / MRT / clearance / AUC / AUC(0-inf) / Cmax / Vd: male, human, plasma, iv; for AUC / AUC(0-inf) / Cmax: up to 24 hr; for Vd: read-out: Vss
Description: as §1
A Phase I, open label, single center study was conducted to evaluate the safety and tolerance of dexanabinol of high enantiomeric purity following a single intravenous administration to normal, healthy male volunteers (Brewster M. E. et al., International Journal Of Clinical Pharmacology and Therapeutics 35: 361-5, 1997). The trial was designed as a rising-dose tolerance study in healthy young male volunteers. In the study, seven groups of at least six subjects each (in the 100 mg dose n=9) received increasing doses (4, 8, 16, 32, 48, 100, 200 mg/volunteer) of dexanabinol. An additional group of 6 subjects received the vehicle alone. The lower doses, from 4 to 32 mg/volunteer, were included only in the safety segment of the study. Volunteers were followed-up up to 6 days after drug dosing for safety evaluation.
The pharmacokinetic segment of this study involved 27 healthy male subjects to assess the pharmacokinetic profile of 48, 100 and 200 mg i.v. doses of dexanabinol. Each dosing group, including vehicle control, consisted of 6 healthy male subjects, except for the 100 mg dosing group which contained nine subjects. On the pre-study day, volunteers were treated with 20 mg dexamethasone orally. On the study day, each group was premedicated with Chlorpheniramine maleate 10 mg (H1 blocker) and Cimetidine 300 mg (H2 blocker) intravenously, followed 30 minutes later by a single intravenous infusion of dexanabinol, administered using an Ivac peristaltic pump at a rate of 6 ml/min (approximately 15 min infusion/dose). Ten milliliters of blood were then removed (from the contralateral arm) at the end of the infusion, at 5, 10, 20, 30, 45 min, and at 1, 2, 3, 6, 12 and 24 hr post infusion. In some cases blood was also drawn 48 hr post end of infusion.
Mean pharmacokinetic parameters were estimated by non-compartmental methods up to 24 hr post-infusion for each dose group (mean±SE; n=6 or 9) using WinNonlin Professional version 3.2, (Pharsight Corp., Mountain view Calif.) and are presented in Table 8.

[3] = 48 mg single i.v. infusion, healthy volunteers, mean ± SE
[4] = 100 mg single i.v. infusion, healthy volunteers, mean ± SE
[5] = 200 mg single i.v. infusion, healthy volunteers, mean ± SE

CCCCCCC(C)(C)c1cc(O)c2c(c1)OC(C)(C)[C@H]1CC=C(CO)C[C@H]21 [dexanabinol, 1,1-dimethylheptyl-(3S,4S)-7-hydroxy-Δ^6-tetrahydrocannabinol]
AUC(0-inf) ([1]; iv, rat female): 173000 ng·h/mL | Cmax ([1]; iv, rat female): 38800 ng/mL | AUC(0-inf) ([1]; iv, rat male): 67500 ng·h/mL | Cmax ([1]; iv, rat male): 102000 ng/mL | NOAEL ([1]; Sprague-Dawley, rat, in vivo, iv, single dose i.v., read-out: no observed adverse effect level (NOAEL)): 50 mg/kg | AUC∞ Ratio to Phase I ([1]; rat female): 54.0 | Cmax Ratio to Phase I ([1]; rat female): 7.7 | Cmax Ratio to Phase II ([1]; rat female): 19.7 | AUC∞ Ratio to Phase I ([1]; rat male): 21.0 | Cmax Ratio to Phase I ([1]; rat male): 20.4 | Cmax Ratio to Phase II ([1]; rat male): 51.9 | AUC∞/Dose [2, 3]: 72,469 ± 8,774 ng × min/ml | AUC∞/Dose [2, 4]: 59,374 ± 4,742 ng × min/ml | AUC∞/Dose [2, 5]: 48,162 ± 3,355 ng × min/ml | Plasma concentrations ([2]; after a 48 mg dose (0.62 mg/kg)): approximately 1.8 μg/ml | Plasma concentrations ([2]; at 100 mg (1.29 mg/kg)): ~2900 ng/mL | Plasma concentrations ([2]; at 200 mg (2.59 mg/kg)): ~4600 ng/mL | half-life ([2]; 48 mg, 48 mg single i.v. infusion, healthy volunteers, mean ± SE, read-out: t1/2 (converted)): 6.3 ± 0.7 h | half-life ([2]; 100 mg, 100 mg single i.v. infusion, healthy volunteers, mean ± SE, read-out: t1/2 (converted)): 6.1 ± 0.7 h | half-life ([2]; 200 mg, 200 mg single i.v. infusion, healthy volunteers, mean ± SE, read-out: t1/2 (converted)): 8.2 ± 0.7 h | half-life ([2]; single i.v. infusion 48, 100, 200 mg, read-out: distributional phase half-life): 0.0333 to 0.05 h | half-life ([2]; single i.v. infusion 48, 100, 200 mg, read-out: intermediate phase elimination half-life): 1 to 2 h | half-life ([2]; single i.v. infusion 48, 100, 200 mg, read-out: terminal elimination phase half-life): 8.5 to 9.5 h | MRT [2, 3]: 3.1 ± 0.2 h | clearance [2, 3]: 14.9 ± 1.9 mL/min/kg | AUC [2, 3]: 710 ng·h/mL | AUC(0-inf) [2, 3]: 725 ng·h/mL | Cmax [2, 3]: 1860 ng/mL | Vd [2, 3]: 2.8 ± 0.4 L/kg | MRT [2, 4]: 3.1 ± 0.3 h | clearance [2, 4]: 17.8 ± 1.5 mL/min/kg | AUC [2, 4]: 1200 ng·h/mL | AUC(0-inf) [2, 4]: 1220 ng·h/mL | Cmax [2, 4]: 2890 ng/mL | Vd [2, 4]: 3.4 ± 0.4 L/kg | MRT [2, 5]: 4 ± 0.6 h | clearance [2, 5]: 21.3 ± 1.6 mL/min/kg | AUC [2, 5]: 2240 ng·h/mL | AUC(0-inf) [2, 5]: 2320 ng·h/mL | Cmax [2, 5]: 4570 ng/mL | Vd [2, 5]: 5 ± 0.7 L/kg | acute doses found safe ([2]; single i.v.): ≤ 200 mg per subject | tolerability of drug administration ([2]; single i.v. 4 to 200 mg/volunteer): well tolerated
